Here are results for 2 compounds from patent publication US20230390278A1, “SYNERGISTIC COMBINATIONS OF VALPROOIC ACID AND QUINACRINE” (VESTLANDETS INNOVASJONSSELSKAP AS, priority 2020, published 2023).

Data set [1] in a line: Plasma levels of QC and VPA in blood of off-label treated AML patients, measured by LC/MS. Conditions: for concentration at 3 h: 3 h after intake; for concentration at 25 day: Patient 1, day 25, QC 200 mg/day, VPA 600 + 1200 mg/day; for concentration at 64 day: Patient 1, day 64, QC 300 mg/day; for concentration at 163 day: Patient 1, day 163, QC 400 mg/day; for concentration at 65 day: Patient 2, day 65, QC 200 mg/day. The class given is in vivo, human. From the text: The plasma concentration may be the blood plasma concentration or bone marrow plasma concentration. […] Plasma concentrations may be determined by liquid chromatography-mass spectrometry (LC-MS).

The nature of data set [2]: Plasma levels of QC and VPA in bone marrow (BM) of off-label treated AML patients, measured by LC/MS. The class given is in vivo, human.
Setting [3] is: human, oral, Plasma VPA, VPA 300 + 600 mg/day.
The mark [4] stands for this setting: human, oral, VPA 300 + 600 mg/day, read-out: Plasma QC.

Where two headings read alike, the source gives them in different places.

`CCCC(CCC)C(=O)O` [VPA, 2-propylvaleric acid]: the “Plasma VPA” value in data set [1] (Patient 1, day 128, QC 400 mg/day, VPA 600 + 900 mg/day, neg: negative) is reported as “neg”. Further, the concentration at 3 h was found to be 17.1 µM in data set [1] (human, oral, Plasma VPA, Patient 1, day 1, QC 100 mg/day, VPA 300 + 300 mg/day); 156 µM in data set [1] (human, oral, Plasma VPA, Patient 2, day 1, QC 100 mg/day, VPA 300 + 600 mg/day); 120 µM in data set [1] (human, oral, Plasma VPA, Patient 3, day 1, QC 100 mg/day, VPA 300 + 300 mg/day). Also, the concentration at 25 day in data set [1] (human, oral, Plasma VPA) came to 43 µM. Further, the concentration at 64 day in data set [1] (human, oral, Plasma VPA, VPA 600 + 900 mg/day) was 25.6 µM. Moreover, in data set [1] (setting [3]), the concentration at 163 day was found to be 119 µM. Also, the concentration at 15 day in data set [1] (human, oral, Plasma VPA, Patient 2, day 15, QC 200 mg/day, VPA 600 + 600 mg/day) was 442 µM; in data set [1] (human, oral, Plasma VPA, Patient 3, day 15, QC 300 mg/day, VPA 300 + 600 mg/day) it was 41.3 µM. Also, the concentration at 65 day in data set [1] (setting [3]) worked out at 341 µM.
As for `CCN(CC)CCCC(C)Nc1c2ccc(Cl)cc2nc2ccc(OC)cc12` (racemic) [QC, (RS)-N′-(6-chloro-2-methoxy-acridin-9-yl)-N, N-diethyl-pentane-1,4-diamine], the “Plasma QC, BM” value in data set [2] (Patient 1, day 163, QC 400 mg/day, VPA 300 + 600 mg/day) is “BM: 44 nM”; in data set [2] (Patient 2, day 15, QC 200 mg/day, VPA 600 + 600 mg/day) it was “BM: 32 nM”; in data set [2] (Patient 2, day 65, QC 200 mg/day, VPA 300 + 600 mg/day) it was “BM: 332 nM”. For the same compound, the concentration at 3 h in data set [1] (human, oral, Patient 1, day 1, QC 100 mg/day, VPA 300 + 300 mg/day, read-out: Plasma QC) was 0.004 µM; in data set [1] (human, oral, Patient 2, day 1, QC 100 mg/day, VPA 300 + 600 mg/day, read-out: Plasma QC), 0.008 µM; in data set [1] (human, oral, Patient 3, day 1, QC 100 mg/day, VPA 300 + 300 mg/day, read-out: Plasma QC), 0.008 µM. Also, in data set [1] (human, oral, read-out: Plasma QC), the concentration at 25 day is 0.052 µM. Moreover, in data set [1] (human, oral, VPA 600 + 900 mg/day, read-out: Plasma QC), the concentration at 64 day was 0.138 µM. Besides, the concentration at 128 day in data set [1] (human, oral, Patient 1, day 128, QC 400 mg/day, VPA 600 + 900 mg/day) worked out at 0.038 µM. For the same compound, the concentration at 163 day in data set [1] (setting [4]) came out at 0.038 µM. Moreover, the concentration at 15 day in data set [1] (human, oral, Patient 2, day 15, QC 200 mg/day, VPA 600 + 600 mg/day, read-out: Plasma QC) was 0.018 µM; in data set [1] (human, oral, Patient 3, day 15, QC 300 mg/day, VPA 300 + 600 mg/day, read-out: Plasma QC) it was 0.3 µM. Also, the concentration at 65 day in data set [1] (setting [4]) was 0.13 µM.
